Test results published in PMC7811009, “Oxytocin modulates local topography of human functional connectome in healthy men at rest” (Communications Biology, 2021).

Assays:
[1] = tested on: human functional connectome at rest; experiment: Resting-state BOLD-fMRI, graph theory: global efficiency (macroscale); 40 IU intranasal (spray/nebuliser) or 10 IU intravenous, about 57 min post-dosing, 16 healthy men; format: in vivo; conditions: repeated measures one-way ANOVA, F (1.932, 28.980) = 0.568, p = 0.567
Method: (§1) Each experimental session began with the treatment administration protocol that lasted about 22 min in total (Fig. 8, lower panel). After drug administration, participants were guided to the MRI scanner, where eight pulsed continuous arterial spin labelling scans (each lasting approx. eight minutes) were acquired, spanning 15–104 min post-dosing (data reported elsewhere[11]). The 8-min resting state BOLD-fMRI scan reported herein was obtained at about 57 ± 3.38 min post-dosing. Participants were instructed to lie still and maintain their gaze on a centrally placed fixation cross during scanning. We assessed participants’ levels of alertness (anchors: alert-drowsy) and excitement (anchors: excited-calm) using visual analogue scales (0–100) at three different time-points during the scanning session to evaluate subjective drug effects across time (data reported elsewhere[11]).
MRI data were acquired on a 3 T MR750 system (GE Healthcare, Waukesha, Wisconsin) with a 32-channel head coil. Functional data was acquired using a shot multi-echo echo planar imaging (EPI) sequence (TR = 2500 ms, TE’s = 12, 28, 44 and 60 ms, FA = 80°, FOV = 240 × 240 mm^2, Matrix = 64 × 64, Slice thickness = 3 mm, 32 continuous descending axial slices, resolution = 3.75 × 3.75 × 3 mm). […] The resting state fMRI scan lasted 8 min 10 s, with collection of a total of 192 volumes for each echo. […]

[2] = tested on: human functional connectome at rest; experiment: Resting-state BOLD-fMRI, graph theory: node degree (mesoscale); same doses, time and cohort; format: in vivo; conditions: post-hoc paired t-tests, FDR
Method: as §1
We used the CONN functional connectivity toolbox[97] to generate brain-wide functional connectivity matrices for each subject/session. […] The default atlas of the CONN toolbox includes 132 non-overlapping ROIs spanning cortical and subcortical areas and the cerebellum using a combination of the cortical and subcortical areas from the FSL Harvard-Oxford atlas and of the cerebellar areas of the Automatic Anatomical Labelling atlas (Supplementary data 1 for a detailed description). […] Finally, we normalized our correlation measures to z-scores using the Fisher’s r-z transform per subject/session.
We then used our z-transformed connectivity matrices to construct brain graphs representing a functional connectivity network for each subject/session. We used an undirected signed weighted approach in which we kept information about the sign and weight of each of the connections between the nodes (ROIs) of our network, without making assumptions about the direction of this relationship. These connectivity matrices represent fully connected networks, where each node corresponds to each of the ROIs we used to build the functional connectivity matrices and each edge represents the z-transformed value of functional connectivity between a pair of nodes. […] We used the fully weighted networks to calculate equi-sparse networks by retaining a fixed percentage (K) of the total amount of possible edges. […]
For each of the graph metrics analysed, we summarized the different values over the range of thresholds using the area under the curve (AUC), instead of applying multiple testing for each metric/threshold. […]

[3] = cited from earlier work
Description: It is not yet clear which precise mechanisms mediate the effects of intravenous oxytocin on brain function. […] At least three mechanisms have been postulated. First, it is possible that the direct peripheral effects of oxytocin on oxytocin receptors expressed in vegetative territories, such as the heart, may be an indirect source of changes in the brain.

CC[C@H](C)[C@@H]1NC(=O)[C@H](Cc2ccc(O)cc2)NC(=O)[C@@H](N)CSSC[C@@H](C(=O)N2CCC[C@H]2C(=O)N[C@@H](CC(C)C)C(=O)NCC(N)=O)NC(=O)[C@H](CC(N)=O)NC(=O)[C@H](CCC(N)=O)NC1=O [oxytocin]
Differences in global efficiency across the four treatment conditions [1]: no significant differences | Nodes with decreased node degree compared to placebo ([2]; intravenous, 10 IU): decreased the node degree of the precuneus and right temporal pole | Nodes with increased node degree compared to placebo ([2]; nebuliser, 40 IU intranasal): increased the node degree of the left posterior superior temporal gyrus and left cerebellum (area 7) | Nodes with decreased node degree compared to placebo ([2]; spray, 40 IU intranasal): decreased the node degree of the right posterior inferior temporal gyrus | Nodes with increased node degree compared to placebo ([2]; spray, 40 IU intranasal): increased node degree of the brainstem, left cerebellum (area 1) and right intracalcarine cortex | Amount crossing the blood–brain barrier (BBB) [3]: very small amounts | Effects on heart-rate or heart-rate variability ([3]; same doses/methods and cohort of participants): absence of effects
